# Laboratory results as given in patent US4957730A, “Antimycotic nail varnish” (Hoechst Aktiengesellschaft, priority 1985, dated 1990).
# Legend:
# T. mentagrophytes = experiment: penetration test on excised pig skin: growth inhibition in the lowest region of the horny layer
# Experimental: The test method for penetration capacity on excised skin from pigs enables the capacity to penetrate of an effective concentration of compounds horny tissue to be tested.
# (§1) In the tests for the penetration capacity, the surface of shaved pieces of skin was first treated with 0.3% strength solutions of the compounds 1-8 and likewise with three similar compounds not claimed, in each case dissolved in a mixture of 1 ml of dimethyl sulfoxide and 9 ml of isopropanol, at room temperature and was washed again after 2 hours. The lowest region of the horny layer was then exposed by removing the superficial layers by peeling off with adhesive strips ten times in succession. The deep-lying horny layer now exposed was inoculated with virulent pathogens of nail mycoses (dermatophytes). Conclusions as to the level of the penetration capacity were drawn on the basis of the degree of growth inhibition found.
# (§2) The results of these experiments are shown in Table 1 in comparison with the efficacy of the pyridone compounds against the highly virulent skin fungus Trichophyton mentagrophytes 109 (100/25) in the in vitro series dilution test and in the guinea pig trichophytosis model.
# ***Horny layer penetration: percentage growth inhibition by the substance
# which has penetrated into the lowest part of the horny layer.
# (§3) *Time between application of the product and stripping of the skin
# [1] = test system: Trichophyton mentagrophytes; experiment: penetration test on horny human skin with nail varnishes: growth inhibition in the deep horny layer; details: for growth inhibition of Trichophyton mentagrophytes in the deep lying horny layer of human skin: in words, 1 or 2 hours
# Experimental: as §1
# In further experiments, the substantially thicker horny human skin was treated by the test method described above at room temperature for 1 or 2 hours with 3% strength nail varnishes of compounds 9 and 10 and likewise with a similar compound 4, which is not claimed, in comparison with the abovementioned nail varnish containing sulbentine. The varnish base of examples 9 and 10 and of comparison 4 and 5 was prepared by mixing the following constituents:
# 2-Hydroxy-4-methoxybenzophenone: 0.1%
# Sodium dioctyl sulfosuccinate: 1.0%
# 50% strength solution of a copolymer of methyl vinyl ether and monobutyl maleate in isopropyl alcohol: 30.0%
# as §3
# [2] = test system: Trichophyton mentagrophytes 109 (100/25); experiment: in vitro series dilution test (MIC); assay type: cell-based; details: T. mentagrophytes
# Source text: as §2
# *Minimum inhibitory concentration (MIC) in the series dilution test
# [3] = test system: Trichophyton mentagrophytes 109 (100/25); experiment: guinea pig trichophytosis model, inhibition on the skin surface; design: concentration or dose not given beside the values; details: in vivo
# Source text: as §2
# **Percentage inhibition on the skin surface in the guinea pig
# Trichophytosis model (W. Dittmar, Mykosen 18 (8), 351-361 (1975)
# [4] = humans, 3% strength varnishes, action time 60 min
# [5] = humans, 3% strength varnishes, action time 120 min
# [6] = Table 1, pig skin, 0.3% strength solutions, washed after 2 hours, lowest part of horny layer
smiles,measurement,setting,value
Cc1cc(C2CCCCC2)n(O)c(=O)c1 [Example 10],Inhibition (%) in the deep horny layer,T. mentagrophytes; 2 h,"98,0%"
same,Inhibition (%) in the deep horny layer,[1]; [4],"100,0%"
same,Inhibition (%) in the deep horny layer,[1]; [5],"100,0%"
same,growth inhibition of Trichophyton mentagrophytes in the deep lying horny layer of human skin,[1]; 3% strength varnishes,almost completely or completely inhibit the growth
Cc1cc(CCC2CCCCC2)n(O)c(=O)c1 [Example 5],MIC,[2],1.95 µg/mL
same,Inhibition (%) on skin,[3],"88,0%"
same,Inhibition (%) in the horny layer,T. mentagrophytes; [6],"81,2%"
Cc1cc(CC(C)CC(C)(C)C)n(O)c(=O)c1 (stereo not drawn) [Example 9],Inhibition (%) in the deep horny layer,T. mentagrophytes; 2 h,"99,6%"
same,Inhibition (%) in the deep horny layer,[1]; 1 h,"99,0%"
same,Inhibition (%) in the deep horny layer,[1]; 2 h,"99,9%"
same,growth inhibition of Trichophyton mentagrophytes in the deep lying horny layer of human skin,[1]; 3% strength varnishes,almost completely or completely inhibit the growth
Cc1ccc(Cc2cc(C)c(C)c(=O)n2O)c(C)c1 [Example 7],MIC,[2],1.95 µg/mL
same,Inhibition (%) on skin,[3],"88,8%"
same,Inhibition (%) in the horny layer,T. mentagrophytes; [6],"80,0%"
"Cc1cc(CCCCc2ccccc2)n(O)c(=O)c1 [Comparison 3, reference compound]",MIC,[2],3.9 µg/mL
same,Inhibition (%) on skin,[3],"88,0%"
same,Inhibition (%) in the horny layer,T. mentagrophytes; [6],"24,2%"
Cc1cc(CCc2ccccc2)n(O)c(=O)c1 [Example 8],MIC,[2],1.95 µg/mL
same,Inhibition (%) on skin,[3],"88,0%"
same,Inhibition (%) in the horny layer,T. mentagrophytes; [6],"81,9%"
"Cc1cc(C(C)C)n(O)c(=O)c1 [Comparison 1, reference compound]",MIC,[2],1.95 µg/mL
same,Inhibition (%) on skin,[3],"75,0%"
same,Inhibition (%) in the horny layer,T. mentagrophytes; [6],"35,7%"
Cc1cc(C2CC3CCC2C3)n(O)c(=O)c1 (stereo not drawn) [Example 6],MIC,[2],1.95 µg/mL
same,Inhibition (%) on skin,[3],"88,0%"
same,Inhibition (%) in the horny layer,T. mentagrophytes; [6],"79,9%"
Cc1cc(CC(C)CC(C)(C)C)n(O)c(=O)c1 (stereo not drawn) [Example 3],MIC,[2],1.95 µg/mL
same,Inhibition (%) on skin,[3],"91,9%"
same,Inhibition (%) in the horny layer,T. mentagrophytes; [6],"99,6%"
CCCCCCCc1cc(C)cc(=O)n1O [Example 1],MIC,[2],1.95 µg/mL
same,Inhibition (%) on skin,[3],"89,4%"
same,Inhibition (%) in the horny layer,T. mentagrophytes; [6],"97,0%"
"CCCCCCCCCCCc1cc(C)cc(=O)n1O [Comparison 2, reference compound]",MIC,[2],3.9 µg/mL
same,Inhibition (%) on skin,[3],"100,0%"
same,Inhibition (%) in the deep horny layer,T. mentagrophytes; 2 h,"9,8%"
same,Inhibition (%) in the horny layer,T. mentagrophytes; [6],"9,8%"
same,Inhibition (%) in the deep horny layer,[1]; [4],"51,4%"
same,Inhibition (%) in the deep horny layer,[1]; [5],"49,4%"
same,growth inhibition of Trichophyton mentagrophytes in the deep lying horny layer of human skin,[1]; 3% strength varnishes,only an inadequate inhibiting effect
CCCCC(CC)c1cc(C)cc(=O)n1O (stereo not drawn) [Example 2],MIC,[2],1.95 µg/mL
same,Inhibition (%) on skin,[3],"85,6%"
same,Inhibition (%) in the horny layer,T. mentagrophytes; 2 h,"85,8%"
Cc1cc(C2CCCCC2)n(O)c(=O)c1 [Example 4],MIC,[2],1.95 µg/mL
same,Inhibition (%) on skin,[3],"88,0%"
same,Inhibition (%) in the horny layer,T. mentagrophytes; [6],"98,0%"
